From ChEMBL document CHEMBL1136919, “Synthesis and P2Y receptor activity of nucleoside 5'-phosphonate derivatives” (Bioorg Med Chem Lett, 2009)

Tests used:
Type in all cases: functional, cell-based
[1] = molecular target: P2Y purinoceptor 4 (Homo sapiens) (UniProt P51582); test: Agonist activity at human P2Y4 receptor expressed in human 1321N1 cells coexpressing phospholipase C-activating G protein assessed as inositol phosphate production at 10 uM by scintillation proximity assay
[2] = molecular target: T1, P2Y purinoceptor 2 (Homo sapiens, UniProt P41231); test: Agonist activity at human P2Y2 receptor expressed in human 1321N1 cells coexpressing phospholipase C-activating G protein assessed as inositol phosphate production by scintillation proximity assay
[3] = molecular target: T1, P2Y purinoceptor 2; test: Agonist activity at human P2Y2 receptor expressed in human 1321N1 cells coexpressing phospholipase C-activating G protein assessed as inositol phosphate production by scintillation proximity assay relative to UTP
[4] = molecular target: T2, P2Y purinoceptor 6 (Homo sapiens, UniProt Q15077); test: Agonist activity at human P2Y6 receptor expressed in human 1321N1 cells coexpressing phospholipase C-activating G protein assessed as inositol phosphate production by scintillation proximity assay
[5] = molecular target: T1, P2Y purinoceptor 2; test: Agonist activity at human P2Y2 receptor expressed in human 1321N1 cells coexpressing phospholipase C-activating G protein assessed as inositol phosphate production at 10 uM by scintillation proximity assay
[6] = molecular target: T2, P2Y purinoceptor 6; test: Agonist activity at human P2Y6 receptor expressed in human 1321N1 cells coexpressing phospholipase C-activating G protein assessed as inositol phosphate production at 10 uM by scintillation proximity assay

T1 sequence (P41231 whole entry): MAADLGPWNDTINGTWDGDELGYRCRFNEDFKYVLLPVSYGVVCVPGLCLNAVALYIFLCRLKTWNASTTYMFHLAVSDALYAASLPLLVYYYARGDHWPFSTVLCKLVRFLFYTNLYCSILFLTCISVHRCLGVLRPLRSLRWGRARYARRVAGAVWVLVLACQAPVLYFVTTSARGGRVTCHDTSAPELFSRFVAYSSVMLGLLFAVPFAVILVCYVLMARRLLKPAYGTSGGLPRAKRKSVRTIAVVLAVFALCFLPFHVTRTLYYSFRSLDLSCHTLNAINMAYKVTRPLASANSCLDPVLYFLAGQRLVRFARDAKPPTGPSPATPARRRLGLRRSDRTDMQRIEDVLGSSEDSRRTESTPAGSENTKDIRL
P2Y purinoceptor 4 (Homo sapiens), sequence (P51582 whole entry): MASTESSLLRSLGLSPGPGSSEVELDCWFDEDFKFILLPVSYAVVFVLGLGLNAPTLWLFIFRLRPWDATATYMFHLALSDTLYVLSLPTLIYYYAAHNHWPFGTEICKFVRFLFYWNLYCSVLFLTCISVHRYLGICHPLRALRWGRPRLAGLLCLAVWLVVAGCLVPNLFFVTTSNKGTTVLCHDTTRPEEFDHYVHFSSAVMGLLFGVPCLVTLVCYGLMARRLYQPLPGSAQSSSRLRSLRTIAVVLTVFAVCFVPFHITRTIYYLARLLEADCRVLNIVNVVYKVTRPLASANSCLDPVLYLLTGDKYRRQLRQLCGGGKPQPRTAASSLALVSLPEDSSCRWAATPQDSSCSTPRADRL
T2 sequence (Q15077 whole entry): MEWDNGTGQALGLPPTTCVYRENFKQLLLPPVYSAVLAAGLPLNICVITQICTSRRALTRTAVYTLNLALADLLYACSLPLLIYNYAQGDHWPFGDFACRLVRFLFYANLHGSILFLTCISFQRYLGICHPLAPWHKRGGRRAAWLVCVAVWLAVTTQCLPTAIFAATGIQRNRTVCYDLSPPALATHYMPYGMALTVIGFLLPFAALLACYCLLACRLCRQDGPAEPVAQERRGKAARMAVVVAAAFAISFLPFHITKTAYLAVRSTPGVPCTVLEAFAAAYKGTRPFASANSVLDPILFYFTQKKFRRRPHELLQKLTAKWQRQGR

O=c1ccn([C@@H]2O[C@H](/C=C/P(=O)(O)OP(=O)(O)OP(=O)(O)O)[C@@H](O)[C@H]2O)c(=O)[nH]1
Emax [1]: < 50% | EC50 [2]: 1000 nM

O=c1ccn([C@@H]2O[C@H](CP(=O)(O)OP(=O)(O)O)[C@@H](O)[C@H]2O)c(=O)[nH]1
EC50 [2]: 3400 nM | Activity [3]: 50% | EC50 [4]: 1900 nM

O=c1ccn([C@@H]2O[C@H](COP(=O)(O)OP(=O)(O)C[C@H]3O[C@@H](n4ccc(=O)[nH]c4=O)[C@H](O)[C@@H]3O)[C@@H](O)[C@H]2O)c(=O)[nH]1
Emax [5]: < 50%

Nc1ncnc2c1ncn2[C@@H]1O[C@H](CP(=O)(O)OP(=O)(O)OP(=O)(O)O)[C@@H](O)[C@H]1O
Emax [1]: < 50% | EC50 [2]: 1400 nM

O=c1ccn([C@@H]2O[C@H](COP(=O)(O)OP(=O)(O)OP(=O)(O)O)[C@@H](O)[C@H]2O)c(=O)[nH]1
EC50 [6]: > 10000 nM

O=c1ccn([C@@H]2O[C@H](CCP(=O)(O)O)[C@@H](O)[C@H]2O)c(=O)[nH]1
EC50 [2]: 1600 nM | Activity [3]: < 50%

O=c1ccn([C@@H]2O[C@H](CP(=O)(O)OP(=O)(O)OP(=O)(O)O)[C@@H](O)[C@H]2O)c(=O)[nH]1
EC50 [2]: 8600 nM
